These results are taken from the OPERA property sets (Mansouri et al. 2018).

SMILES strings stand for the structures. Converted amounts (≈) assume the structure as drawn.

Settings in one data set: not given
Take `CC1=C2[C@H]3OC(=O)[C@@H](C)[C@@H]3CC[C@@]2(C)C=CC1=O`: the solubility amounted to 0.812 mM (≈ 0.2 mg/mL).

Compound `Cc1cc(OC(=O)N(C)C)n(-c2ccccc2)n1` came in with a solubility of 8.15 mM (≈ 2 mg/mL). This solubility lies about 10-fold higher than the previous one.

`O=C1c2ccccc2C(=O)c2c1ccc(O)c2O` returned a solubility of 1.67 mM (≈ 0.4 mg/mL). Against the preceding compound, the solubility is about 4.9-fold lower.

On to `NCCNCCNCCNCCN`, for which the solubility is 34500 mM (≈ 6540 mg/mL).

The same data set, now with this note: 20 °C.
In turn, `CNc1ccccc1C(=O)O` returned a solubility of 1.32 mM (≈ 0.2 mg/mL).

With `CNC(=O)N(C)c1nc2ccccc2s1`, the solubility was 0.267 mM (≈ 0.059 mg/mL).

`CC(Cl)[N+](=O)[O-]` (centres undefined) showed a solubility of 36.5 mM (≈ 4 mg/mL).

Turning to `Clc1cc(Cl)c(-c2cccc(Cl)c2Cl)cc1Cl`, the solubility came out at 8.7e-05 mM (≈ 2.84e-05 mg/mL).

Turning to `OC[C@H]1O[C@@H](n2cnc3c(O)ncnc32)[C@H](O)[C@@H]1O`, the solubility came to 58.9 mM (≈ 15.8 mg/mL).

The compound `C[C@H](O)C(=O)Nc1c(I)c(C(=O)NC(CO)CO)c(I)c(C(=O)NC(CO)CO)c1I` had a solubility of 180 mM (≈ 140 mg/mL).

Take `c1ccc2c(c1)ccc1c2ccc2c3ccccc3ccc21`: the solubility is 1.55e-05 mM (≈ 4.31e-06 mg/mL).

For `Nc1ccc(S(=O)(=O)O)cc1`, the solubility came out at 62.4 mM (≈ 10.8 mg/mL).

In turn, `Cc1cc(Cl)ccc1N=CN(C)C` gave a solubility of 1.37 mM (≈ 0.27 mg/mL).

On to `Clc1ccc(-c2cc(Cl)ccc2Cl)c(Cl)c1`, for which the solubility was 0.000267 mM (≈ 7.81e-05 mg/mL).

The compound `CN=C=S` had a solubility of 104 mM (≈ 7.6 mg/mL).

In turn, `C[C@H](CCC(=O)O)[C@H]1CC[C@H]2[C@@H]3[C@@H](O)C[C@@H]4C[C@H](O)CC[C@]4(C)[C@H]3CC[C@]12C` displayed a solubility of 0.108 mM (≈ 0.0424 mg/mL).

`Clc1ccccc1-c1cccc(Cl)c1Cl` had a solubility of 0.00114 mM (≈ 0.000293 mg/mL).

For the compound `Clc1ccc(Cl)c(-c2cccc(Cl)c2Cl)c1`, the solubility came to 0.000342 mM (≈ 0.0001 mg/mL).

`CSc1nc(N=[N+]=[N-])nc(NC(C)C)n1`: the solubility was 0.244 mM (≈ 0.055 mg/mL). Against the preceding compound, the solubility is about 710-fold higher.

Take `Clc1ccc(-c2c(Cl)cc(Cl)c(Cl)c2Cl)cc1Cl`: the solubility was determined as 2.24e-05 mM (≈ 8.07e-06 mg/mL).

`O=C(O)Cn1c(=O)sc2cccc(Cl)c21` gave a solubility of 2.46 mM (≈ 0.6 mg/mL).

`CCCCCC(=O)OC`: the solubility came to 10.2 mM (≈ 1.33 mg/mL).

`Oc1cc(O)ncn1`: the solubility was found to be 22.3 mM (≈ 2.5 mg/mL).

The data set is the same for the next values; noted with them: 22 °C.
The compound `CN(C)C(=O)N(C(=O)c1ccccc1)c1ccc(Cl)c(Cl)c1` registered a solubility of 0.0474 mM (≈ 0.016 mg/mL).

`OCc1ccccc1O` gave a solubility of 507 mM (≈ 63 mg/mL).

Staying with this data set, now noted: 23 °C.
As for `C[C@]12CC[C@@H](O)C[C@@H]1CC[C@@H]1[C@@H]2CC[C@]2(C)C(=O)CC[C@@H]12`, the solubility was determined as 0.0461 mM (≈ 0.0134 mg/mL).

The same data set, now with this note: 24 °C.
The compound `CC(C)COC(=O)c1ccccc1C(=O)OCC(C)C` yielded a solubility of 0.0223 mM (≈ 0.0062 mg/mL).

The same data set, now with this note: 25 °C.
For the compound `Fc1cccc(Br)c1`, the solubility came to 2.16 mM (≈ 0.378 mg/mL). In other words, the millimolar range.

Turning to `Clc1cccc2c1Oc1ccccc1O2`, the solubility worked out at 0.00191 mM (≈ 0.000417 mg/mL).

The compound `CC(C)CCOC(=O)c1ccccc1O` showed a solubility of 0.696 mM (≈ 0.145 mg/mL).

Compound `O=S(=O)(Cl)c1ccc(I)cc1` came in with a solubility of 0.0539 mM (≈ 0.0163 mg/mL).

`CC(C)C(=O)C(C)C`: the solubility stood at 49.9 mM (≈ 5.7 mg/mL).

The compound `Nc1ccc(S(=O)(=O)Nc2nccs2)cc1` displayed a solubility of 3.76 mM (≈ 0.96 mg/mL).

For the compound `Ic1ccc(I)cc1`, the solubility came to 0.00424 mM (≈ 0.0014 mg/mL).

For the compound `O=C(O)COc1c(Cl)ccc(Cl)c1Cl`, the solubility amounted to 2.4 mM (≈ 0.613 mg/mL). Against the preceding compound, the solubility is about 570-fold higher.

For the compound `FC(F)(F)C(F)(F)F`, the solubility turned out to be 0.0564 mM (≈ 0.00778 mg/mL).

In turn, `Nc1ccc(S(=O)(=O)Nc2ncccn2)cc1` returned a solubility of 0.308 mM (≈ 0.077 mg/mL). Compared with the last compound, the solubility is about 5.5-fold higher.

Regarding `Cc1cc(C)c2ccccc2n1`, the solubility worked out at 11.4 mM (≈ 1.79 mg/mL).

`C[C@]12CC[C@H]3C(=CCc4cc(O)ccc43)[C@@H]1CCC2=O` yielded a solubility of 0.00525 mM (≈ 0.00141 mg/mL).

Regarding `CC1CCC(C)CC1` (centres undefined), the solubility came out at 0.0342 mM (≈ 0.00384 mg/mL). This solubility is about 6.5-fold higher than that of the compound before.

In turn, `Cc1cc(=O)[nH]o1` came in with a solubility of 858 mM (≈ 85 mg/mL).

`CC1(C)C(=O)[C@@]2(C)CC[C@@H]1C2` came in with a solubility of 14.1 mM (≈ 2.15 mg/mL).

`Clc1cc(-c2ccccc2)c(Cl)c(Cl)c1Cl` gave a solubility of 4.8e-05 mM (≈ 1.4e-05 mg/mL).

With `C1=CC=CCC=C1`, the solubility stood at 6.73 mM (≈ 0.62 mg/mL).

`Clc1cccc(-c2cccc(Cl)c2Cl)c1Cl` came in with a solubility of 5.34e-05 mM (≈ 1.56e-05 mg/mL). This lies in the double-digit nanomolar range.

On to `c1ccc2c(c1)CCN2`, for which the solubility was 90.6 mM (≈ 10.8 mg/mL).

The compound `CCOC(=O)C=Cc1ccccc1` showed a solubility of 1.01 mM (≈ 0.178 mg/mL).

With `Clc1cc(-c2cc(Cl)c(Cl)c(Cl)c2Cl)c(Cl)c(Cl)c1Cl`, the solubility was 6.33e-07 mM (≈ 2.72e-07 mg/mL).

As for `Cc1ccc2cc3ccccc3cc2c1`, the solubility was found to be 0.000111 mM (≈ 2.13e-05 mg/mL).

In turn, `C#CCCCCCC#C` showed a solubility of 1.04 mM (≈ 0.125 mg/mL).

As to `C[C@@H]1CC[C@@]2(OC1)O[C@H]1C[C@H]3[C@@H]4CC=C5C[C@@H](O)CC[C@]5(C)[C@H]4CC[C@]3(C)[C@H]1[C@@H]2C`, the solubility was 4.82e-05 mM (≈ 2e-05 mg/mL).

Compound `O=C(O)CNC(=O)c1ccccc1` displayed a solubility of 20.9 mM (≈ 3.75 mg/mL). That is a millimolar value.

For the compound `C1=CCCC1`, the solubility turned out to be 7.85 mM (≈ 0.535 mg/mL).

Regarding `C#CCCCCC`, the solubility worked out at 0.977 mM (≈ 0.094 mg/mL).

With `C=CCCCC=C`, the solubility came out at 0.458 mM (≈ 0.044 mg/mL).

The compound `Fc1ccccc1Br` yielded a solubility of 2.01 mM (≈ 0.353 mg/mL).

Staying with this data set, now noted: 27 °C.
For `CC(=O)[C@@]1(O)CC[C@H]2[C@@H]3CCC4=CC(=O)CC[C@]4(C)[C@H]3CC[C@@]21C`, the solubility amounted to 0.0196 mM (≈ 0.00648 mg/mL).

The data set is the same for the next values; noted with them: 30 °C.
Turning to `Cc1cccc([N+](=O)[O-])c1`, the solubility was found to be 3.65 mM (≈ 0.5 mg/mL).

Compound `COC(=O)c1ccccc1O` came in with a solubility of 48.6 mM (≈ 7.4 mg/mL).

As usually defined, the solubility is how much of the substance goes into solution per volume.
